Experimental data as given in PubChem BioAssay AID248 (DTP/NCI, 2004).
Several values for one entry are separate records, joined by “and”; a condition that tells them apart may be missing. Equal values may be shown once. Toxic doses and inconclusive results are not listed.

Test system: L1210 leukemia ip in BDF1 mice, survival T/C
Test: NCI In Vivo Anticancer Drug Screen. Data for tumor model L1210 Leukemia (intraperitoneal) in B6D2F1 (BDF1) mice
Conditions: endpoint: mean survival time, higher = longer survival
How it was run: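 Tumor cells were implanted, animals were treated, and survival was followed. The result divides the treated measurement by the vehicle-control measurement.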

[1] = dose: 50.0 mg/kg/injection, schedule: Q01DX001 (ip), vehicle: Klucel (hydroxypropylcellulose) (HPC)
[2] = dose: 100.0 mg/kg/injection, schedule: Q01DX001 (ip), vehicle: Klucel (hydroxypropylcellulose) (HPC)
[3] = dose: 100.0 mg/kg/injection, schedule: Q04DX002 (ip), vehicle: Klucel (hydroxypropylcellulose) (HPC)
[4] = dose: 100.0 mg/kg/injection, schedule: Q04DX003 (ip), vehicle: acetone
[5] = dose: 200.0 mg/kg/injection, schedule: Q04DX003 (ip), vehicle: acetone
[6] = dose: 100.0 mg/kg/injection, schedule: Q04DX003 (ip), vehicle: saline
[7] = dose: 200.0 mg/kg/injection, schedule: Q04DX003 (ip), vehicle: saline
[8] = dose: 400.0 mg/kg/injection, schedule: Q04DX003 (ip), vehicle: saline
[9] = dose: 50.0 mg/kg/injection, schedule: Q01DX009 (ip), vehicle: saline
[10] = dose: 100.0 mg/kg/injection, schedule: Q01DX009 (ip), vehicle: saline
[11] = dose: 200.0 mg/kg/injection, schedule: Q01DX009 (ip), vehicle: saline
[12] = dose: 100.0 mg/kg/injection, schedule: Q01DX001 (ip), vehicle: saline
[13] = dose: 200.0 mg/kg/injection, schedule: Q01DX001 (ip), vehicle: saline
[14] = dose: 400.0 mg/kg/injection, schedule: Q01DX001 (ip), vehicle: saline
[15] = dose: 200.0 mg/kg/injection, schedule: Q01DX001 (ip), vehicle: Klucel (hydroxypropylcellulose) (HPC)
[16] = dose: 100.0 mg/kg/injection, schedule: Q04DX002 (ip), vehicle: saline with Tween-80
[17] = dose: 200.0 mg/kg/injection, schedule: Q04DX002 (ip), vehicle: saline with Tween-80
[18] = dose: 400.0 mg/kg/injection, schedule: Q04DX002 (ip), vehicle: saline with Tween-80

Structure (SMILES): CCCNC(=O)Sc1ccc(C(C)(C)C)cc1
- T/C (dose: 25.0 mg/kg/injection, schedule: Q01DX001 (ip), vehicle: Klucel (hydroxypropylcellulose) (HPC)): 91 % of control
- T/C (dose: 25.0 mg/kg/injection, schedule: Q01DX009 (ip), vehicle: Klucel (hydroxypropylcellulose) (HPC)): 95 % of control and 104 % of control
- T/C [1]: 91 % of control
- T/C (dose: 50.0 mg/kg/injection, schedule: Q01DX009 (ip), vehicle: Klucel (hydroxypropylcellulose) (HPC)): 98 % of control and 112 % of control
- T/C [2]: 93 % of control
- T/C (dose: 100.0 mg/kg/injection, schedule: Q01DX009 (ip), vehicle: Klucel (hydroxypropylcellulose) (HPC)): 93 % of control and 102 % of control and 104 % of control
- T/C [3]: 95 % of control and 89 % of control
- T/C (dose: 200.0 mg/kg/injection, schedule: Q04DX002 (ip), vehicle: Klucel (hydroxypropylcellulose) (HPC)): 96 % of control and 97 % of control
- T/C (dose: 400.0 mg/kg/injection, schedule: Q04DX002 (ip), vehicle: Klucel (hydroxypropylcellulose) (HPC)): 92 % of control and 93 % of control

Structure (SMILES): c1ccc2c(Cc3c4ccccc4cc4ccccc34)c3ccccc3cc2c1
- T/C (dose: 25.0 mg/kg/injection, schedule: Q04DX002 (ip), vehicle: Klucel (hydroxypropylcellulose) (HPC)): 94 % of control
- T/C (dose: 50.0 mg/kg/injection, schedule: Q04DX002 (ip), vehicle: Klucel (hydroxypropylcellulose) (HPC)): 97 % of control
- T/C [3]: 90 % of control

Structure (SMILES): CNC(=O)c1ccc[n+](CC(=O)Nc2ccc(Cl)cc2)c1
- T/C [4]: 110 % of control
- T/C [5]: 98 % of control

Structure (SMILES): CCOC(=O)CSC(=S)SCC(=O)OCC
- T/C [6]: 104 % of control
- T/C [7]: 105 % of control
- T/C [8]: 107 % of control

Structure (SMILES): CCN(CC)C(C)COC(=O)c1cc(=O)n(C)c2ccccc12 (stereo not drawn)
- T/C [9]: 101 % of control
- T/C [10]: 98 % of control
- T/C [6]: 95 % of control
- T/C [11]: 89 % of control
- T/C [7]: 97 % of control

Structure (SMILES): S=C(N/N=C/c1ccc2c(c1)OCO2)Nc1cccc2cccnc12
- T/C [12]: 105 % of control
- T/C [13]: 88 % of control
- T/C [14]: 96 % of control

Structure (SMILES): COc1ccc2c(c1)CCC1C2=CCC2C(=O)CCC(=O)C21 (stereo not drawn)
- T/C [1]: 101 % of control
- T/C [2]: 101 % of control
- T/C [15]: 93 % of control

Structure (SMILES): O=C1CCCC(=O)NNC(=O)NCCCCCCNC(=O)NN1
- T/C (dose: 50.0 mg/kg/injection, schedule: Q01DX001 (ip), vehicle: saline): 102 % of control
- T/C [12]: 87 % of control
- T/C [13]: 87 % of control
- T/C [14]: 96 % of control

Structure (SMILES): COc1c2ccoc2cc2oc(C)cc(=O)c12
- T/C (dose: 37.5 mg/kg/injection, schedule: Q01DX001 (ip), vehicle: carboxymethylcellulose (CMC)): 103 % of control
- T/C (dose: 75.0 mg/kg/injection, schedule: Q01DX001 (ip), vehicle: carboxymethylcellulose (CMC)): 100 % of control
- T/C (dose: 150.0 mg/kg/injection, schedule: Q01DX001 (ip), vehicle: carboxymethylcellulose (CMC)): 108 % of control

Structure (SMILES): O=C(COC(=O)c1ccccc1C(=O)c1ccccc1O)c1ccc(-c2ccccc2)cc1
- T/C [13]: 91 % of control
- T/C [14]: 91 % of control

Structure (SMILES): CCN(CC)c1ccc(NC(=S)Nc2ccc(N(CC)CC)cc2)cc1
- T/C (dose: 75.0 mg/kg/injection, schedule: Q01DX009 (ip), vehicle: Klucel (hydroxypropylcellulose) (HPC)): 100 % of control
- T/C (dose: 75.0 mg/kg/injection, schedule: Q04DX003 (ip), vehicle: saline): 106 % of control
- T/C (dose: 150.0 mg/kg/injection, schedule: Q01DX009 (ip), vehicle: Klucel (hydroxypropylcellulose) (HPC)): 101 % of control
- T/C (dose: 150.0 mg/kg/injection, schedule: Q04DX003 (ip), vehicle: saline): 103 % of control
- T/C (dose: 300.0 mg/kg/injection, schedule: Q01DX009 (ip), vehicle: Klucel (hydroxypropylcellulose) (HPC)): 94 % of control
- T/C (dose: 300.0 mg/kg/injection, schedule: Q04DX003 (ip), vehicle: saline): 93 % of control

Structure (SMILES): O=P(N=P(c1ccccc1)(c1ccccc1)c1ccccc1)(c1ccccc1)c1ccccc1
- T/C [12]: 97 % of control
- T/C [13]: 97 % of control
- T/C [14]: 97 % of control

Structure (SMILES): CSc1ccc(NC(=O)N(CCCl)N=O)cc1
- T/C (dose: 0.7 mg/kg/injection, schedule: Q01DX001 (ip), vehicle: carboxymethylcellulose (CMC)): 109 % of control
- T/C (dose: 1.5 mg/kg/injection, schedule: Q01DX001 (ip), vehicle: carboxymethylcellulose (CMC)): 112 % of control
- T/C (dose: 2.0 mg/kg/injection, schedule: Q01DX009 (ip), vehicle: other): 171 % of control
- T/C (dose: 2.6 mg/kg/injection, schedule: Q01DX009 (ip), vehicle: carboxymethylcellulose (CMC)): 113 % of control
- T/C (dose: 4.0 mg/kg/injection, schedule: Q01DX009 (ip), vehicle: carboxymethylcellulose (CMC)): 119 % of control
- T/C (dose: 4.0 mg/kg/injection, schedule: Q01DX009 (ip), vehicle: other): 180 % of control
- T/C (dose: 8.0 mg/kg/injection, schedule: Q01DX001 (ip), vehicle: other): 208 % of control
- T/C (dose: 8.0 mg/kg/injection, schedule: Q01DX009 (ip), vehicle: other): 170 % of control
- T/C (dose: 8.3 mg/kg/injection, schedule: Q01DX001 (ip), vehicle: carboxymethylcellulose (CMC)): 175 % of control
- T/C (dose: 9.0 mg/kg/injection, schedule: Q01DX009 (ip), vehicle: carboxymethylcellulose (CMC)): 156 % of control
- T/C (dose: 12.0 mg/kg/injection, schedule: Q01DX001 (ip), vehicle: other): 194 % of control
- T/C (dose: 12.5 mg/kg/injection, schedule: Q01DX001 (ip), vehicle: carboxymethylcellulose (CMC)): 187 % of control
- T/C (dose: 18.0 mg/kg/injection, schedule: Q01DX001 (ip), vehicle: other): 101 % of control
- T/C (dose: 18.7 mg/kg/injection, schedule: Q01DX001 (ip), vehicle: carboxymethylcellulose (CMC)): 211 % of control
- T/C (dose: 25.0 mg/kg/injection, schedule: Q01DX001 (ip), vehicle: carboxymethylcellulose (CMC)): 94 % of control

Structure (SMILES): O=C1C(Br)=CC(Br)(Br)C=C1Br
- T/C (dose: 100.0 mg/kg/injection, schedule: Q04DX003 (ip), vehicle: saline with Tween-80): 92 % of control
- T/C (dose: 200.0 mg/kg/injection, schedule: Q04DX003 (ip), vehicle: saline with Tween-80): 95 % of control
- T/C (dose: 400.0 mg/kg/injection, schedule: Q04DX003 (ip), vehicle: saline with Tween-80): 93 % of control

Structure (SMILES): O=C1NC(CN2CCCC(O)C2)C(=O)NC1CN1CCCC(O)C1 (stereo not drawn) (tested in a mixture with another compound)
- T/C (dose: 25.0 mg/kg/injection, schedule: Q01DX009 (ip), vehicle: water): 104 % of control
- T/C (dose: 50.0 mg/kg/injection, schedule: Q01DX009 (ip), vehicle: water): 104 % of control
- T/C (dose: 100.0 mg/kg/injection, schedule: Q01DX009 (ip), vehicle: water): 112 % of control
- T/C (dose: 200.0 mg/kg/injection, schedule: Q01DX009 (ip), vehicle: water): 108 % of control

Structure (SMILES): COC1(OC)C2CCC1C(O)C2 (stereo not drawn)
- T/C [10]: 104 % of control
- T/C [11]: 105 % of control

Structure (SMILES): Cc1c(O)cccc1N(C)C
- T/C [12]: 112 % of control
- T/C [4]: 111 % of control
- T/C [13]: 105 % of control
- T/C [5]: 106 % of control
- T/C [7]: 88 % of control
- T/C [14]: 91 % of control
- T/C (dose: 400.0 mg/kg/injection, schedule: Q04DX003 (ip), vehicle: acetone): 102 % of control
- T/C [8]: 90 % of control

Structure (SMILES): C/C=C/CC1(CC(C)C)C(=O)NC(=S)NC1=O
- T/C (dose: 75.0 mg/kg/injection, schedule: Q01DX001 (ip), vehicle: saline): 102 % of control
- T/C (dose: 150.0 mg/kg/injection, schedule: Q01DX001 (ip), vehicle: saline): 94 % of control
- T/C (dose: 300.0 mg/kg/injection, schedule: Q01DX001 (ip), vehicle: saline): 99 % of control

Structure (SMILES): O=C(NO)C(=O)NO
- T/C [9]: 98 % of control
- T/C [10]: 113 % of control
- T/C [16]: 90 % of control
- T/C [11]: 117 % of control
- T/C [17]: 107 % of control
- T/C [18]: 110 % of control

Structure (SMILES): NC(=O)c1[nH]cnc1N1CC[N+](Cc2ccccc2)=N1
- T/C [2]: 102 % of control
- T/C [15]: 96 % of control

Structure (SMILES): NC(=O)c1ccc[n+](Cc2c(Cl)cccc2Cl)c1
- T/C (dose: 1.56 mg/kg/injection, schedule: Q01DX009 (ip), vehicle: saline): 111 % of control
- T/C (dose: 3.12 mg/kg/injection, schedule: Q01DX009 (ip), vehicle: saline): 122 % of control
- T/C (dose: 6.25 mg/kg/injection, schedule: Q01DX009 (ip), vehicle: saline): 122 % of control

Structure (SMILES): CC(O)CCc1ccccc1O (stereo not drawn)
- T/C [16]: 98 % of control
- T/C [17]: 91 % of control
- T/C [18]: 98 % of control

Structure (SMILES): COC(=O)CNC(=O)c1cccc([N+](=O)[O-])c1
- T/C [12]: 96 % of control
- T/C [13]: 94 % of control
- T/C [14]: 97 % of control
